Consider 3 compounds from patent publication US20250277247A1, “NUCLEIC ACID AMPLIFICATIONS” (priority 2012, published 2025).

The structures appear in SMILES notation.

For data set [1], the system named is purified influenza A viral RNA. The class given is biochemical. The following applies: 14 mM EGTA, 15 mM MgSO4, 100 mM Tris-Cl; about 20 minutes at room temperature, then 56° C., monitored 10 minutes; 0 or 100 copies.
In data set [2] the test system is genomic DNA from Mycobacterium bovis BCG. It is filed as biochemical, Mycobacterium bovis BCG (ATCC strain 190115). The following applies: 15 mM EGTA, 15 mM MgSO4; 15 minutes at room temperature, then 56° C., monitored 40 minutes; 20 or 200 copies vs no template.
The conditions of data set [3]: cited from earlier work.
For data set [4] the following is noted: NEAR reaction mixture, buffer pH 8 at room temperature, temperature increased to 56° C.; cited from earlier work.

On to `O=C(O)CN(CCOCCOCCN(CC(=O)O)CC(=O)O)CC(=O)O` [EGTA, Ethylene bis(oxyethylenenitrilo) tetraacetic acid], for which the “Amplification (real-time fluorescence)” value is “Amplification was observed only in the reactions that included both EGTA and 100 copies of viral RNA” in data set [1]; “significant amplification was observed” in data set [2].

For the compound `O=S(=O)(O)CCN1CCN(CCS(=O)(=O)O)CC1` [PIPES, piperazine-N,N′-bis(2-ethanesulfonic acid)], the “pKa (20° C.)” value in data set [3] (20° C.) is 6.80. In addition, the “pKa (25° C.)” value in data set [3] (25° C.) is 6.76. In data set [3] (37° C.), the “pKa (37° C.)” value is 6.66.

As for `NC(CO)(CO)CO` [Tris, tris(hydroxymethyl)aminomethane], in data set [4], the “pH of the temperature sensitive buffer” value is under 7.4.
